Patent US20070196902A1, “Method of detecting AZT resistance in HIV” (University of Pittsburgh, priority 2006, published 2007)

Experiments:
[1] = test system: HIVLAI RT 67N/70R/215F/509L; assay: Drug susceptibility assay in P4/R5 cells, site-directed mutant; assay type: cell-based, HIV-1
[2] = test system: HIVLAI RT 67N/70R/215F/371V; assay: as above; assay type: cell-based, HIV-1
Procedure: (§1) Drug susceptibility assays. NRTI susceptibility was determined in P4/R5 cells as described previously (Parikh, U. M., et al. 2005. Antimicrob. Agents Chemother. 49:1139-44). Briefly, threefold dilutions of inhibitor were added to P4/R5 cells in triplicate and cells were infected with an amount of virus that produced 100 relative units of light (RLU) in no drug, virus control wells. After 48 hours, the cells were lysed (Gal-Screen; Tropix/Applied Biosystems, Foster City, Calif.) and the RLU was measured using a ThermoLabSystems luminometer (Waltham, Mass.). The IC50 and fold-resistance were calculated as described above. IC50 values from at least three independent experiments were log10 transformed and compared for statistically significant differences using the two-sample Student's t test.
(§2) Construction of mutant recombinant HIV-1. Mutant recombinant plasmid clones of virus were generated by oligonucleotide site-directed mutagenesis as described previously (Shi, C., and J. W. Mellors. 1997. A recombinant retroviral system for rapid […] analysis of human immunodeficiency virus type 1 susceptibility to reverse transcriptase inhibitors. Antimicrob. Agents Chemother. 41:2781-5), using the p6HRT-MO plasmid. p6HRT-MO contains the entire RT and protease coding sequence as previously described (Le Grice, S. F., and F. Gruninger-Leitch. 1990. Rapid purification of homodimer and heterodimer HIV-1 reverse transcriptase by metal chelate affinity chromatography. Eur. J. Biochem. 187:307-14) and four silent restriction sites (Xma I, Mlu I, Xba I, and NgoM IV from the 5′ to 3′ end of RT at codons 14, 358, 490 and 554, respectively). After site-directed mutagenesis (QIAamp kit, QIAGEN, Valencia, Calif.), the mutated RT was ligated into pxxHIV-1LAI MO that contains the entire genome of HIV-1LAI and the same silent restriction sites as p6HRT-MO. Infectious virus was generated by electroporating the mutated xxHIV-1LAI MO plasmid into MT-2 cells as described above. All mutations in recombinant viruses were confirmed by full-length sequencing of the entire RT coding region.

[3] = test system: HIVLAI RT 67N/70R/215I/371V; assay: as above; assay type: cell-based, HIV-1
Procedure: as §1, §2

[4] = test system: HIVLAI RT 67N/70R/215I/509L; assay: as above; assay type: cell-based, HIV-1
Procedure: as §1, §2

HIVLAI RT 67N/70R/215I = assay: as above; assay type: cell-based, HIV-1
Procedure: as §1, §2

HIVLAI RT 67N/70R/371V = assay: as above; assay type: cell-based, HIV-1
Procedure: as §1, §2

HIVLAI RT 67N/70R/509L = assay: as above; assay type: cell-based, HIV-1
Procedure: as §1, §2

HIVLAI RT A371V/Q509L = assay: as above; assay type: cell-based, HIV-1
Procedure: as §1, §2

HIVLAI RT A371V = assay: as above; assay type: cell-based, HIV-1
Procedure: as §1, §2

[5] = test system: HIVLAI RT D67N/K70R/A371V/Q509L; assay: as above; assay type: cell-based, HIV-1
Procedure: as §1, §2

[6] = test system: HIVLAI RT D67N/K70R/T215F/A371V/Q509L; assay: as above; assay type: cell-based, HIV-1
Procedure: as §1, §2

[7] = test system: HIVLAI RT D67N/K70R/T215F; assay: as above; assay type: cell-based, HIV-1
Procedure: as §1, §2

[8] = test system: HIVLAI RT D67N/K70R/T215I/A371V/Q509L; assay: as above; assay type: cell-based, HIV-1
Procedure: as §1, §2

HIVLAI RT D67N/K70R = assay: as above; assay type: cell-based, HIV-1
Procedure: as §1, §2

HIVLAI RT Q509L = assay: as above; assay type: cell-based, HIV-1
Procedure: as §1, §2

HIV-1 RT H539N = details: H539N mutation; cited from earlier work
[9] = test system: HIV-1 RT D549N with TAMs D67N, K70R, T215Y and K219Q; details: D549N present with TAMs D67N; cited from earlier work
[10] = test system: HIV-1 RT G335C with "classic" TAMs; details: G335C present with "classic" TAMs; cited from earlier work
[11] = test system: HIV-1 RT A360I with "classic" TAMs; details: A360I present with "classic" TAMs; cited from earlier work

Cc1cn([C@H]2C[C@H](N=[N+]=[N-])[C@@H](CO)O2)c(=O)[nH]c1=O [AZT, 3′-azido-3′-dideoxythymidine]
Fold-Resistance ([1]; 67N/70R/215F/509L compared to wild-type): 128 fold
IC50 ([1]; Human immunodeficiency virus 1, P4/R5, 67N/70R/215F/509L, mean ± SD): 28000 ± 17000 nM
Fold-Resistance ([2]; 67N/70R/215F/371V compared to wild-type): 22 fold
IC50 ([2]; Human immunodeficiency virus 1, P4/R5, 67N/70R/215F/371V, mean ± SD): 4900 ± 2900 nM
Fold-Resistance ([3]; 67N/70R/215I/371V compared to wild-type): 2.6 fold
IC50 ([3]; Human immunodeficiency virus 1, P4/R5, 67N/70R/215I/371V, mean ± SD): 600 ± 300 nM
Fold-Resistance ([4]; 67N/70R/215I/509L compared to wild-type): 14 fold
IC50 ([4]; Human immunodeficiency virus 1, P4/R5, 67N/70R/215I/509L, mean ± SD): 3000 ± 2200 nM
Fold-Resistance (HIVLAI RT 67N/70R/215I; 67N/70R/215I compared to wild-type): 1.3 fold
IC50 (HIVLAI RT 67N/70R/215I; Human immunodeficiency virus 1, P4/R5, 67N/70R/215I, mean ± SD): 300 ± 200 nM
Fold-Resistance (HIVLAI RT 67N/70R/371V; 67N/70R/371V compared to wild-type): 6.4 fold
IC50 (HIVLAI RT 67N/70R/371V; Human immunodeficiency virus 1, P4/R5, 67N/70R/371V, mean ± SD): 1400 ± 500 nM
Fold-Resistance (HIVLAI RT 67N/70R/509L; 67N/70R/509L compared to wild-type): 14 fold
IC50 (HIVLAI RT 67N/70R/509L; Human immunodeficiency virus 1, P4/R5, 67N/70R/509L, mean ± SD): 3000 ± 1000 nM
Fold-Resistance (HIVLAI RT A371V/Q509L; A371V/Q509L compared to wild-type): 1.7 fold
IC50 (HIVLAI RT A371V/Q509L; Human immunodeficiency virus 1, P4/R5, A371V/Q509L, mean ± SD): 300 ± 60 nM
Fold-Resistance (HIVLAI RT A371V; A371V compared to wild-type): 0.7 fold
IC50 (HIVLAI RT A371V; Human immunodeficiency virus 1, P4/R5, A371V, mean ± SD): 200 ± 40 nM
Fold-Resistance ([5]; 67N/70R/371V/509L compared to wild-type): 39 fold
IC50 ([5]; Human immunodeficiency virus 1, P4/R5, 67N/70R/371V/509L, mean ± SD): 9100 ± 5200 nM
Fold-Resistance ([6]; 67N/70R/215F/371V/509L compared to wild-type): 934 fold
IC50 ([6]; Human immunodeficiency virus 1, P4/R5, 67N/70R/215F/371V/509L, mean ± SD): 203000 ± 40000 nM
Fold-Resistance ([7]; 67N/70R/215F compared to wild-type): 18 fold
IC50 ([7]; Human immunodeficiency virus 1, P4/R5, 67N/70R/215F, mean ± SD): 3800 ± 2100 nM
Fold-Resistance ([8]; 67N/70R/215I/371V/509L compared to wild-type): 41 fold
IC50 ([8]; Human immunodeficiency virus 1, P4/R5, 67N/70R/215I/371V/509L, mean ± SD): 9400 ± 6700 nM
Fold-Resistance (HIVLAI RT D67N/K70R; 67N/70R compared to wild-type): 4.6 fold
IC50 (HIVLAI RT D67N/K70R; Human immunodeficiency virus 1, P4/R5, 67N/70R, mean ± SD): 1100 ± 600 nM
IC50 (HIVLAI RT Q509L; Human immunodeficiency virus 1, P4/R5, Q509L, mean ± SD): 300 ± 200 nM
Fold-Resistance (HIVLAI RT Q509L; Q509L compared to wild-type): 1.3 fold
increase in resistance (reduced susceptibility) (HIV-1 RT H539N): 180 fold
increase in resistance [9]: 1,230 fold
reduction of AZT susceptibility [10]: 30 fold
reduction of AZT susceptibility [11]: 30 fold
